Results published in patent publication US9278958B2, “Anti-cancer compounds” (KATHOLIEKE UNIVERSITEIT LEUVEN, priority 2012, dated 2016).
Where two headings read alike, the source gives them in different places.

What was measured:
HUT-78 cells = experiment: Cytostatic assay, HUT-78; assay type: cell-based; conditions: Homo sapiens, HuT78; Table 2
Protocol: (§1) To each well of a 96-well microtiter plate were added 5-7.5×10^4 cells and a given amount of the test compound. The cells were allowed to proliferate for 48 h to 96 h (depending on the nature of the cell line) at 37° C. in a humidified CO2-controlled atmosphere. At the end of the incubation period, the cells were counted in a Coulter Counter (Coulter Electronics Ltd, Harpenden Herts, United Kingdom).

[1] = test system: HeLa cervix carcinoma cells; experiment: Cytostatic assay, HeLa; assay type: cell-based, human; conditions: Homo sapiens; Table 3; read-out: Cytostatic activity (μM) Hela
Summary of the method: (§2)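 Cells (5-7.5×10^4/well) + test compound; growth 48–96 h (line-dependent), 37° C, humidified CO2 atmosphere; endpoint Coulter count.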

[2] = test system: HL60, human leukemia cells; experiment: Cytostatic assay, HL-60; assay type: cell-based; conditions: Table 2
Protocol: as §1

[3] = test system: Caki-2 kidney carcinoma cells; experiment: Cytostatic assay, Caki-2; assay type: cell-based; conditions: Homo sapiens, Table 3
Protocol: as §1

[4] = test system: HT29 colorectal carcinoma cells; experiment: Cytostatic assay, HT29; assay type: cell-based; conditions: Homo sapiens, HT-29; Table 3
Protocol: as §1

PLC/PRF/5 hepatoma cells = experiment: Cytostatic assay, PLC/PRF/5; assay type: cell-based; conditions: Homo sapiens, Table 4
Protocol: as §1

BPH-1 (UZ) = experiment: Cytostatic assay, BPH-1 (UZ); assay type: cell-based; conditions: Homo sapiens, Table 4
Protocol: as §1

L1210 cells = experiment: Cytostatic assay, L1210; assay type: cell-based; conditions: Mus musculus, Table 2
Protocol: as §1

[5] = test system: PC-3 (UZ) prostate cancer cells; experiment: Cytostatic assay, PC-3 (UZ); assay type: cell-based; conditions: Table 4
Protocol: as §1

[6] = test system: Raji, human B-lymphoma cells; experiment: Cytostatic assay, Raji; assay type: cell-based; conditions: Table 2
Protocol: as §1

[7] = test system: DNA synthesis in CEM cells; experiment: Antimetabolic activity assay, [CH3-3H]dThd incorporation (DNA synthesis), CEM; assay type: cell-based; conditions: Homo sapiens, CCRF-CEM, incorporation into TCA-insoluble material
Protocol: (§3) Radiolabeled precursors of DNA synthesis ([^3H-methyl]dThd), RNA synthesis ([5-^3H]Urd), and protein synthesis ([4,5-^3H]leu) were added to 10^5 CEM cell cultures in the 200 μl-wells of a microtiter plate at 1 μCi for each precursor in the presence of varying concentrations of the test compounds (5-fold dilution series). The cells were allowed to proliferate for 20 hrs at 37° C. in a humidified, CO2-controlled atmosphere. At the end of the incubation period, the contents of the wells were brought onto 25-mm glass fiber filters and further processed for measurement of acid-insoluble radioactivity.

[8] = test system: BAEC aortic endothelial cells; experiment: Cytostatic assay, BAEC; assay type: cell-based, bovine; conditions: Bos taurus, Table 3
Protocol: as §1

[9] = test system: protein synthesis in Raji cells; experiment: Antimetabolic activity assay, [4,5-3H]leucine incorporation (protein synthesis), Raji; assay type: cell-based; conditions: Homo sapiens, incorporation into TCA-insoluble material
Protocol: [The procedure below names another cell line; the source lists this cell line under the same test.] as §3

[10] = test system: DU145 (UZ) prostate cancer cells; experiment: Cytostatic assay, DU145 (UZ); assay type: cell-based; conditions: Homo sapiens, DU-145; Table 4
Protocol: as §1

[11] = test system: MCF-7 mammary carcinoma cells; experiment: Cytostatic assay, MCF-7; assay type: cell-based; conditions: Homo sapiens, MCF7; Table 3
Protocol: as §1

[12] = test system: protein synthesis in CEM cells; experiment: Antimetabolic activity assay, [4,5-3H]leucine incorporation (protein synthesis), CEM; assay type: cell-based; conditions: Homo sapiens, CCRF-CEM, incorporation into TCA-insoluble material
Protocol: as §3

Sup T1 cells = experiment: Cytostatic assay, Sup T1; assay type: cell-based; conditions: Homo sapiens, Table 2, read-out: Cytostatic activity (μM) Sup T 1
Protocol: as §1

U87 glioma cells = experiment: Cytostatic assay, U87; assay type: cell-based; conditions: Homo sapiens, U-87 MG; Table 3
Protocol: as §1

[13] = test system: OST TK- osteosarcoma cells; experiment: Cytostatic assay, OST TK-; assay type: cell-based; conditions: Homo sapiens; Table 3
Protocol: as §1

[14] = test system: 293T embryonic kidney cells; experiment: Cytostatic assay, 293T; assay type: cell-based; conditions: Homo sapiens, HEK-293T; Table 3
Protocol: as §1

[15] = test system: DNA synthesis in Raji cells; experiment: Antimetabolic activity assay, [CH3-3H]dThd incorporation (DNA synthesis), Raji; assay type: cell-based; conditions: Homo sapiens, incorporation into TCA-insoluble material
Protocol: [The procedure below names another cell line; the source lists this cell line under the same test.] as §3

[16] = test system: RNA synthesis in CEM cells; experiment: Antimetabolic activity assay, [5-3H]uridine incorporation (RNA synthesis), CEM; assay type: cell-based; conditions: Homo sapiens, CCRF-CEM, incorporation into TCA-insoluble material
Protocol: as §3

MT-2 cells = experiment: Cytostatic assay, MT-2; assay type: cell-based; conditions: Homo sapiens, MT2; Table 2
Protocol: as §1

[17] = test system: Caki-1 kidney carcinoma cells; experiment: Cytostatic assay, Caki-1; assay type: cell-based; conditions: Homo sapiens, Table 3
Protocol: as §1

Huh-7 hepatoma cells = experiment: Cytostatic assay, Huh-7; assay type: cell-based; conditions: Homo sapiens, Table 4
Protocol: as §1

MT-4 cells = experiment: Cytostatic assay, MT-4; assay type: cell-based; conditions: Homo sapiens, MT4; Table 2
Protocol: as §1

[18] = test system: PC3 (rega) prostate cancer cells; experiment: Cytostatic assay, PC3 (rega); assay type: cell-based; conditions: Table 4
Protocol: as §1

[19] = test system: 22Rv1 (UZ) prostate cancer cells; experiment: Cytostatic assay, 22Rv1 (UZ); assay type: cell-based; conditions: Homo sapiens, Table 4
Protocol: as §1

[20] = test system: PNT1A (UZ) prostate cells; experiment: Cytostatic assay, PNT1A (UZ); assay type: cell-based; conditions: Homo sapiens, Table 4
Protocol: as §1

[21] = test system: FM3A mammary carcinoma cells; experiment: Cytostatic assay, FM3A; assay type: cell-based, murine; conditions: Mus musculus, Table 3
Protocol: as §1

[22] = test system: U937, human monocytic cells; experiment: Cytostatic assay, U937; assay type: cell-based; conditions: U-937, Table 2
Protocol: as §1

[23] = test system: HEL embryonic lung fibroblast cells; experiment: Cytostatic assay, HEL; assay type: cell-based; conditions: Homo sapiens, Table 3
Protocol: as §1

[24] = test system: RNA synthesis in Raji cells; experiment: Antimetabolic activity assay, [5-3H]uridine incorporation (RNA synthesis), Raji; assay type: cell-based; conditions: Homo sapiens, incorporation into TCA-insoluble material
Protocol: [The procedure below names another cell line; the source lists this cell line under the same test.] as §3

Molt4/C8 cells = experiment: Cytostatic assay, Molt4/C8; assay type: cell-based; conditions: Table 2
Protocol: as §1

C8166 cells = experiment: Cytostatic assay, C8166; assay type: cell-based; conditions: Homo sapiens, Table 2
Protocol: as §1

[25] = test system: LNCaP (UZ) prostate cancer cells; experiment: Cytostatic assay, LNCaP (UZ); assay type: cell-based; conditions: Homo sapiens, Table 4
Protocol: as §1

[26] = test system: THP-1, human monocytic cells; experiment: Cytostatic assay, THP-1; assay type: cell-based; conditions: Table 2
Protocol: as §1

HepG2C3A hepatoma cells = experiment: Cytostatic assay, HepG2C3A; assay type: cell-based; conditions: Homo sapiens, HepG2/C3A; Table 4
Protocol: as §1

CEM cells = experiment: Cytostatic assay, CEM; assay type: cell-based; conditions: Homo sapiens, CCRF-CEM
Summary of the method: as §2

[27] = Table 2, read-out: Cytostatic activity (μM) CEM

Compound | IC50 (HUT-78 cells) | IC50 [1] | IC50 [2] | IC50 [3] | IC50 [4] | IC50 (PLC/PRF/5 hepatoma cells) | IC50 (BPH-1 (UZ)) | IC50 [5] | IC50 [6] | IC50 [7] | IC50 [8] | IC50 [9] | IC50 [10] | IC50 [11] | IC50 [12] | IC50 (Sup T1 cells) | IC50 (U87 glioma cells) | IC50 [13] | IC50 [14] | IC50 [15] | further results
CCOC(=O)c1cc(-c2ccc(OC)cc2)sc1N [TR525, 2-Amino-5-(4-methoxy-phenyl)-thiophene-3-carboxylic acid ethyl ester] | 117 ± 21 µM | 39 ± 4 µM | 62 ± 9.9 µM | 159 ± 19 µM | 93 ± 11 µM | > 100 µM | 36 ± 1.4 µM | 20 ± 3.5 µM | > 100 µM | 15 ± 3 µM | 74 ± 26 µM | ≥ 100 µM | 41 ± 24 µM | 81 ± 4.9 µM | 6.2 ± 7.6 µM | 86 ± 7.1 µM | 90 ± 14 µM | 79 ± 2.8 µM | > 100 µM | ≥ 100 µM | IC50 (L1210 cells): 44 ± 3 µM; IC50 [16]: 12 ± 5 µM; IC50 (MT-2 cells): 52 ± 5.7 µM; IC50 [17]: 83 ± 36 µM; IC50 (Huh-7 hepatoma cells): > 100 µM; IC50 (MT-4 cells): > 100 µM; IC50 [18]: 13 ± 9.6 µM; IC50 [19]: 16 ± 5.5 µM; IC50 [20]: 42 ± 5.7 µM; IC50 [21]: 49 ± 6 µM; IC50 [22]: 115 ± 19 µM; IC50 [23]: 43 ± 9.9 µM; IC50 [24]: 82 ± 26 µM; IC50 (Molt4/C8 cells): 18 ± 2.1 µM; IC50 (C8166 cells): 102 ± 16 µM; IC50 [25]: 2.3 ± 0.071 µM; IC50 [26]: 102 ± 2.8 µM; IC50 (HepG2C3A hepatoma cells): > 100 µM; IC50 (CEM cells; Table 1a, read-out: IC50 μM (CEM)): 40 µM; IC50 (CEM cells; [27]): 40 ± 1 µM
CCOC(=O)c1cc(CCc2ccccc2OC)sc1N [TR542, 2-Amino-5-[2-(2-methoxy-phenyl)-ethyl]-thiophene-3-carboxylic acid ethyl ester] | 107 ± 70 µM | 45 ± 6 µM | 11 ± 2.2 µM | 16 ± 10 µM | > 100 µM | 39 ± 5.7 µM | 74 ± 4.2 µM | 8.5 ± 3.5 µM | 55 ± 12 µM | 68 ± 14 µM | > 100 µM | 94 ± 7 µM | 34 ± 7.1 µM | 60 ± 0.7 µM | 23 ± 14 µM | 23 ± 2.1 µM | > 100 µM | 41 ± 0.71 µM | > 100 µM | ≥ 100 µM | IC50 (L1210 cells): 40 µM; IC50 [16]: 39 ± 32 µM; IC50 (MT-2 cells): 79 ± 17 µM; IC50 [17]: 62 ± 12 µM; IC50 (Huh-7 hepatoma cells): 28 ± 17 µM; IC50 (MT-4 cells): 41 ± 5.7 µM; IC50 [18]: 8.6 ± 3.4 µM; IC50 [19]: 33 ± 0.71 µM; IC50 [20]: 45 µM; IC50 [21]: 53 ± 7 µM; IC50 [22]: 80 ± 5.7 µM; IC50 [23]: 43 ± 4.9 µM; IC50 [24]: ≥ 100 µM; IC50 (Molt4/C8 cells): 6.8 µM; IC50 (C8166 cells): 143 ± 32 µM; IC50 [25]: 3.8 ± 2.9 µM; IC50 [26]: 31 ± 13 µM; IC50 (HepG2C3A hepatoma cells): 30 ± 0.71 µM; IC50 (CEM cells; [27]): 20 ± 4 µM
CCOC(=O)c1c(N)sc(CCc2cc(OC)ccc2OC)c1C(=O)OCC [TR592, 2-Amino-5-[2-(2,5-dimethoxy-phenyl)-ethyl]-thiophene-3,4-dicarboxylic acid diethyl ester] | 26 ± 3.5 µM | 11 ± 3 µM | 17 ± 0.7 µM | 42 ± 2.1 µM | 43 ± 4.2 µM | 25 µM | 28 ± 3.5 µM | 8.5 ± 0.85 µM | 41 ± 7.1 µM | 17 ± 8 µM | 31 ± 4.2 µM | 23 ± 7 µM | 18 ± 2.1 µM | 27 ± 19 µM | 17 µM | 4.1 ± 0.4 µM | 39 ± 2.8 µM | 17 ± 5.7 µM | 30 ± 7.1 µM | 25 ± 16 µM | IC50 [16]: 31 ± 22 µM; IC50 (MT-2 cells): 8.1 ± 1.2 µM; IC50 [17]: 24 ± 0.7 µM; IC50 (Huh-7 hepatoma cells): 34 ± 14 µM; IC50 (MT-4 cells): 36 ± 16 µM; IC50 [18]: 12 ± 2.1 µM; IC50 [19]: 14 ± 8.3 µM; IC50 [20]: 31 ± 0.71 µM; IC50 [21]: 33 ± 9 µM; IC50 [22]: 20 ± 15 µM; IC50 [23]: 35 ± 6.4 µM; IC50 [24]: 31 ± 19 µM; IC50 (Molt4/C8 cells): 24 ± 17 µM; IC50 (C8166 cells): 25 ± 3.5 µM; IC50 [25]: 4.1 ± 3.6 µM; IC50 [26]: 20 ± 1.4 µM; IC50 (HepG2C3A hepatoma cells): 34 ± 12 µM; IC50 (CEM cells; [27]): 20 ± 6 µM
